Results taken from paper PMC10763561, “Red-light modulated ortho-chloro azobenzene photoswitch for peptide stapling via aromatic substitution” (RSC Chemical Biology, 2023).
Like-named read-outs stand apart in the source and are kept apart here. One block for each molecule: values may come before it. Starred links: 1 amine or outer side, 2 acyl side, 3 side chain; linkers in the order of their positions; H or OH if unused. Positions of bridges follow the written chain, without caps; N, C: chain ends. Residues, ends and D or L forms follow the SMILES beside them. X1 = Clc1cc([*:1])cc(Cl)c1N=Nc1c(Cl)cc([*:2])cc1Cl

How the values were obtained:
[1] = biological target: T1, p53-interacting domain of human MDM2 (MDM2 6-125) (Homo sapiens, UniProt Q00987); test: MDM2 direct fluorescence polarisation binding assay; settings: direct FP, 15 nM tracer, MDM2 titrated from 9.75 uM, 18-point, PBS 0.05% Tween-20 3% DMSO, 1:1 binding model
T1 construct: human MDM2 (MDM26–125)
T1 sequence (Q00987 6-125 limits assumed): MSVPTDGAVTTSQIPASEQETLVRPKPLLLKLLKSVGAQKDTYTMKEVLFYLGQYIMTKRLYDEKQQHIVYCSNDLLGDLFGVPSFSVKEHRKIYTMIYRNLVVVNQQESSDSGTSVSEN
Procedure: To assess the binding affinity of the precursor peptide P1 and the photoswitchable stapled peptide SP1 for MDM2, a competitive fluorescence polarisation (FP) assay was carried out using the p53-interacting domain of human MDM2 (MDM26–125). […] The inhibitory constants (Ki) for all peptides were subsequently determined. […] This can be attributed the loss in α-helicity observed for P1, in comparison to that of PMI,[34] measured by CD analysis. To induce in situ isomerisation, SP1 was irradiated with red or purple light in FP buffer prior to commencing the experiment. […] The Ki values for each isomer were determined from their corresponding inflection points in the fitted sigmoidal curve. […]
The half-life of the metastable cis SP1 form in FP assay buffer was determined by analytical HPLC analysis (Figure S3). […]
P1 and SP1 (10 μL, 10 mM stock in DMSO) were incubated with PBS (1x, 500 μL), human serum (50 μL) and caffeine (10 μL of a 11.25 mg/mL solution in MQ water) at 37 °C for 5 days. […] The samples were spun at 13400 g for 10 minutes and the supernatant analysed by HPLC analysis, with a 5-95% B gradient (A: 0.05% (v/v) TFA in H2O, B: 0.05% (v/v) TFA in MeCN) over 18 minutes at 220 nm.
Caffeine was used as an internal standard to enable quantification of degradation over time. […]
7 Fluorescence Polarisation (FP) Assay […]
7.1 MDM2 Fluorescence Polarisation Binding Assay […]

[2] = Serum stability study monitored by HPLC; assay type: in vitro ADME, human; settings: 37 °C, HPLC 220 nm
Procedure: The stability of SP1 in human serum was investigated and compared to the stability of its linear precursor P1 and the parent PMI (Fig. 6). The stability of the peptides at 37 °C in human serum was monitored throughout 5 days by HPLC.
Fig. 6 Stability of the precursor peptide P1, the parent PMI and SP1 in human serum at 37 °C, over 5 days, monitored by HPLC at 220 nm. […]
6.2 Serum Stability Studies
P1 and SP1 (10 μL, 10 mM stock in DMSO) were incubated with PBS (1x, 500 μL), human serum (50 μL) and caffeine (10 μL of a 11.25 mg/mL solution in MQ water) at 37 °C for 5 days. At specific intervals, aliquots (25 μL) of the reaction mixture were taken, flash frozen in liquid nitrogen and stored at -20 °C prior to analysis on the same day. Upon unfreezing, the samples were quenched with 25 μL of 96% ethanol and 25 μL of DMSO. The samples were spun at 13400 g for 10 minutes and the supernatant analysed by HPLC analysis, with a 5-95% B gradient (A: 0.05% (v/v) TFA in H2O, B: 0.05% (v/v) TFA in MeCN) over 18 minutes at 220 nm.
Caffeine was used as an internal standard to enable quantification of degradation over time. The experiment was performed in duplicates (Table S2-4). […]

[3] = human, human serum diluted in PBS, replicate 1, human serum 50 uL in PBS 500 uL, caffeine internal standard, read-out: Normalised Linker % (peptide remaining)
[4] = human, human serum diluted in PBS, replicate 2, human serum 50 uL in PBS 500 uL, caffeine internal standard, read-out: Normalised Linker % (peptide remaining)
[5] = human, human serum diluted in PBS, 24 h, replicate 2, human serum 50 uL in PBS 500 uL, caffeine internal standard, read-out: Normalised Linker % (peptide remaining)

Kd [1]: 7.6 nM
Molecule: CSCC[C@H](NC(=O)[C@H](Cc1ccccc1)NC(=O)[C@H](CCCNC(=N)N)NC(=O)c1ccc2c(c1)C(=O)OC21c2ccc(N(C)C)cc2Oc2cc(N(C)C)ccc21)C(=O)N[C@@H](CC(=O)O)C(=O)N[C@@H](Cc1ccc(O)cc1)C(=O)N[C@@H](Cc1c[nH]c2ccccc12)C(=O)N[C@@H](CCC(=O)O)C(=O)NCC(=O)N[C@@H](CC(C)C)C(N)=O [FP tracer peptide, TAMRA-RFMDYWEGL-NH2]

Normalised Linker % (peptide remaining) ([2]; 1 h, replicate 2, without the addition of TCEP, human serum 50 uL in PBS 500 uL, caffeine internal standard): 0.000%
remaining at 0.5 h, 175 µM ([2]; human serum diluted in PBS, 0.5 h, replicate 1, without the addition of TCEP, human serum 50 uL in PBS 500 uL, caffeine internal standard, read-out: Normalised Linker % (peptide remaining)): 12.8%
remaining at 1 h, 175 µM ([2]; human serum diluted in PBS, 1 h, replicate 1, without the addition of TCEP, human serum 50 uL in PBS 500 uL, caffeine internal standard, read-out: Normalised Linker % (peptide remaining)): 0%
Molecule: CC(=O)N[C@H](C(=O)N[C@@H](CO)C(=O)N[C@@H](Cc1ccccc1)C(=O)N[C@@H](C)C(=O)N[C@@H](CS)C(=O)N[C@@H](Cc1ccc(O)cc1)C(=O)N[C@@H](Cc1c[nH]c2ccccc12)C(=O)N[C@@H](CC(N)=O)C(=O)NCC(=O)N[C@@H](CC(C)C)C(=O)N[C@@H](CO)C(=O)N[C@@H](CS)C(N)=O)[C@@H](C)O [Peptide P1] (Ac-TSFACYWNGLSC-NH2)

stability in human serum compared with P1 and PMI ([2]; human serum, 5 days): markedly improved stability
remaining at 2 h, 175 µM [2, 3]: 88.6%
remaining at 2 h, 175 µM [2, 4]: 89%
remaining at 24 h, 175 µM ([2]; human, human serum diluted in PBS, 24 h, replicate 1, human serum 50 uL in PBS 500 uL, caffeine internal standard, read-out: Normalised Linker % (peptide remaining)): 82.9%
remaining at 24 h, 175 µM [2, 5]: 72.4%
remaining at 72 h, 175 µM [2, 3]: 79.2%
remaining at 72 h, 175 µM [2, 4]: 53.6%
remaining at 120 h, 175 µM [2, 3]: 82.4%
remaining at 120 h, 175 µM [2, 4]: 48%
Molecule: CC(=O)N[C@H](C(=O)N[C@@H](CO)C(=O)N[C@@H](Cc1ccccc1)C(=O)N[C@@H](C)C(=O)N[C@H]1CSc2cc(Cl)c(c(Cl)c2)N=Nc2c(Cl)cc(cc2Cl)SC[C@@H](C(N)=O)NC(=O)[C@H](CO)NC(=O)[C@H](CC(C)C)NC(=O)CNC(=O)[C@H](CC(N)=O)NC(=O)[C@H](Cc2c[nH]c3ccccc23)NC(=O)[C@H](Cc2ccc(O)cc2)NC1=O)[C@@H](C)O [SP1] (Ac-TSFACYWNGLSC-NH2; linker 5-12 via X1)

Normalised Linker % (peptide remaining) ([2]; 24 h, replicate 1, human serum 50 uL in PBS 500 uL, caffeine internal standard): 0.000%
remaining at 1 h, 175 µM ([2]; human, human serum diluted in PBS, 1 h, replicate 1, human serum 50 uL in PBS 500 uL, caffeine internal standard, read-out: Normalised Linker % (peptide remaining)): 87.2%
remaining at 1 h, 175 µM ([2]; human, human serum diluted in PBS, 1 h, replicate 2, human serum 50 uL in PBS 500 uL, caffeine internal standard, read-out: Normalised Linker % (peptide remaining)): 97.2%
remaining at 3 h, 175 µM [2, 3]: 72.8%
remaining at 3 h, 175 µM [2, 4]: 76.2%
remaining at 6 h, 175 µM [2, 3]: 47.4%
remaining at 6 h, 175 µM [2, 4]: 32.7%
remaining at 9 h, 175 µM [2, 3]: 23.2%
remaining at 9 h, 175 µM [2, 4]: 11.3%
remaining at 24 h, 175 µM [2, 5]: 0%
Molecule: Ac-TSFAEYWNNLSP-NH2 [PMI, reference compound]
